Measured values as given in patent US20090227619A1, “Harmine derivatives, intermediates used in their preparations, preparation processes and use therefo” (priority 2003, published 2009).
Where two headings read alike, the source gives them in different places.

Assays:
Hela = experiment: In vitro cytotoxicity, IC50 by MTT method, Hela; type: cell-based; settings: Homo sapiens
Method: (§1) Culture medium powder RPMI1640 was dissolved in a proper amount of tri-distilled water according to the instruction of the product. […] It was the basic culture solution. The complete culture solution was added with FBS having a final concentration of 10%, 100 U/ml penicillin and 100 µg/ml streptomycin. The solution was fully stirred by a magnetic blender, and the pH of the solution was adjusted to 6.8-7.0. The volume was kept constant. After being filtered and disinfected, the solution was kept into several containers which were sealed and stored at 4° C.
(§2) The cells were placed in a culture dish followed by the addition of complete culture liquid RPMI1640 and then cultured in a incubator comprising 5% CO2 at 37° C. In the exponential growth phase, the cells grew vigorously. If the culture liquid became yellow, the liquid should be replaced instantly.
(§3) The cells, at a concentration of 10^5/ml, were inoculated at a 96-pore culture plate. In each pore, 100 μl cells were inoculated. The cells were placed in a CO2 incubator until the cells were in the logarithmic growth phase. The samples to be tested were added according to the preset concentration gradient. For each gradient, the test was conducted at least three times. An equivalent amount of solvent for dissolving the samples was added in the control group. After 48 h of culture, each pore was added 20 μl MTT (5 mg/ml). The cells were cultured at 37° C. for 4 h. After the supernatant was carefully removed, 100 μl DMSO was added in each pore. The plate was agitated for about 10 minutes such that the precipitates were dissolved. After that, OD value was identified with a Microplate Reader at the wavelength of 490 nm. The survival rate of the cells at various concentrations was calculated according to the following formula:
(§4) Survival rate %=average OD value of the sample group/average OD value of the control group×100%
(§5) Plots of log survival rate of the cells vs. concentration of the medicament were constructed, and the IC50 value of each sample was calculated according to graphing methods.

S180 sarcoma = settings: S180 sarcoma; for Body weight of the animals, beginning, First time / Body weight of the animals, end, First time / Inhibition rate, First time / Weight of the tumor X ± SD, First time: ip × 10qd; for Inhibition rate (%) S180 sarcomata: comparison table 43, in vivo
Source text: (§6) There was one group of 8 to 10 mice C57BL/6 and Kunming mice for the anti-tumor tests and two groups of mice for negative control.
(§7) (3) Sources of tumors: Lewis lung cancer cells and S180 sarcoma in mice, which were sub-cultured and maintained by Pharmacological Center of Shanghai Pharmaceutical Industrial Research Institute.
(§8) All samples were weighed and added a small amount of Tween-80 to facilitate dissolution during the experiment, and then 0.5% CMC-Na solution was gradually added to achieve the desired concentration. The volume for experiment was 0.5 ml/20 g mouse.
(§9) The medicaments were intraperitoneally administered once a day continuously for 10 days.
(§10) For the negative control group, a vehicle of the same volume was intraperitoneally administered once a day continuously for 10 days. For the positive control group, CTX was administered in the dosage of 30 mg/kg once a day continuously for 7 days.
(§11) In vivo anti-tumor subcutaneous vaccination in the axilla was employed. Wildly grown tumor source was taken under sterile conditions to form a cell suspension of about 1×10^7 ml by homogenization method. For a corresponding mouse host, the suspension was injected in the axilla in an amount of 0.2 ml/mouse. The next day, the medicaments were administered according to the design of the tests. About three weeks later, all the groups of animals were executed. The tumors were taken from the animals and weighed. The inhibition rate of tumors was calculated according to the following formula:
(§12) T: average tumor weight of treated group; C: average tumor weight of negative control group.

PLA-801 = experiment: In vitro cytotoxicity, IC50 by MTT method, PLA-801; type: cell-based
Method: as §1, §2, §3, §4, §5

BGC-823 = experiment: In vitro cytotoxicity, IC50 by MTT method, BGC-823; type: cell-based; settings: Homo sapiens, BGC-823
Method: as §1, §2, §3, §4, §5

Lewis lung cancer = settings: for Body weight of the animals, end, First time / Body weight of the animals, beginning, First time / Inhibition rate, First time / Weight of the tumor X ± SD, First time / Inhibition rate (%) Lewis cancer: Lewis lung cancer; for Body weight of the animals, end, First time: ip × 10qd; for Inhibition rate (%) Lewis cancer: comparison table 43, in vivo; for Anti-tumor activity compared with harmine (compound 1): Lewis lung cancer in mice, among 22 compounds tested;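 for all read-outs here: mice implanted subcutaneously in the axilla with Lewis lung tumor cells, treated starting the following day, killed roughly three weeks after implantation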
Source text: as §6, §7, §8, §9, §10, §11, §12

Bel-7402 = experiment: In vitro cytotoxicity, IC50 by MTT method, Bel-7402; type: cell-based; settings: Homo sapiens, Bel-7402
Method: as §1, §2, §3, §4, §5

Lovo = experiment: In vitro cytotoxicity, IC50 by MTT method, Lovo; type: cell-based; settings: Homo sapiens
Method: as §1, §2, §3, §4, §5

HepG2 = experiment: In vitro cytotoxicity, IC50 by MTT method, HepG2; type: cell-based, human; settings: Homo sapiens
Method: as §1, §2, §3, §4, §5

NIH3T3 = experiment: In vitro cytotoxicity, IC50 by MTT method, NIH3T3; type: cell-based; settings: Mus musculus
Method: as §1, §2, §3, §4, §5

Row | SMILES | Body weight of the animals, beginning, First time (S180 sarcoma; Dosage 50 (mg/ml)) [g] | Body weight of the animals, end, First time (S180 sarcoma; Dosage 50 (mg/ml)) [g] | Inhibition rate, First time (S180 sarcoma; Dosage 50 (mg/ml)) [%] | Weight of the tumor X ± SD, First time (S180 sarcoma; Dosage 50 (mg/ml)) [g] | Body weight of the animals, beginning, First time (S180 sarcoma; Dosage 100 (mg/ml)) [g] | Body weight of the animals, end, First time (S180 sarcoma; Dosage 100 (mg/ml)) [g] | Inhibition rate, First time (S180 sarcoma; Dosage 100 (mg/ml)) [%] | Weight of the tumor X ± SD, First time (S180 sarcoma; Dosage 100 (mg/ml)) [g] | Inhibition rate (%) S180 sarcomata (S180 sarcoma) [%] | Body weight of the animals, end, First time (Lewis lung cancer; Dosage 50 (mg/ml)) [g] | Body weight of the animals, beginning, First time (Lewis lung cancer; Dosage 50, ip × 10qd) [g] | Inhibition rate, First time (Lewis lung cancer; Dosage 50, ip × 10qd) [%] | Weight of the tumor X ± SD, First time (Lewis lung cancer; Dosage 50, ip × 10qd) [g] | Body weight of the animals, end, First time (Lewis lung cancer; Dosage 100 (mg/ml)) [g] | Body weight of the animals, beginning, First time (Lewis lung cancer; Dosage 100, ip × 10qd) [g] | Inhibition rate, First time (Lewis lung cancer; Dosage 100, ip × 10qd) [%] | Weight of the tumor X ± SD, First time (Lewis lung cancer; Dosage 100, ip × 10qd) [g] | Inhibition rate (%) Lewis cancer (Lewis lung cancer) [%] | IC50 (Hela; Hela, MTT, read-out: IC50) [µM] | IC50 (PLA-801; PLA-801, MTT, read-out: IC50) [µM] | also measured
1 | CCOC(=O)c1cc2c3ccccc3n(CC)c2cn1 [Compound 31, ethyl 9-ethyl-β-carboline-3-carboxylate] | 19.7 | 26.7 | 28.04 | 1.88 ± 0.21 | 20.0 | 26.1 | 37.02 | 1.65 ± 0.16 | 36.21 | 24.3 | 20.6 | 30.04 | 1.70 ± 0.12 | 23.7 | 20.5 | 36.21 | 1.55 ± 0.22 | 37.02 | – | – | IC50 (Hela; Hela cell strain, read-out: IC50 Hela): 140 µM; IC50 (PLA-801; PLA-801 cell strain, read-out: IC50 PLA-801): 170 µM; IC50 (BGC-823; BGC823 cell strain, read-out: IC50 BGC823): 140 µM; IC50 (Bel-7402; Bel7402 cell strain, read-out: IC50 Bel7402): 260 µM; IC50 (Lovo; Lovo cell strain, read-out: IC50 Lovo): 70 µM; IC50 (HepG2; HepG2 cell strain, read-out: IC50 HepG2): 110 µM; IC50 (NIH3T3; NIH3T3 cell strain, read-out: IC50 NIH3T3): 100 µM
2 | COC(=O)c1cc2c([nH]c3ccccc32)c(-c2ccccc2)n1 [Compound 14, methyl 1-phenyl-β-carboline-3-carboxylate] | 19.8 | 26.7 | 24.43 | 1.98 ± 0.28 | 19.9 | 25.5 | 32.06 | 1.78 ± 0.20 | 34.16 | 23.8 | 20.1 | 27.57 | 1.76 ± 0.25 | 23.1 | 20.7 | 34.16 | 1.60 ± 0.19 | 32.06 | 320 | 1900 | IC50 (BGC-823; BGC823, MTT, read-out: IC50): 1680 µM; Anti-tumor activity compared with harmine (compound 1) (Lewis lung cancer): a little worse than or equivalent to that of harmines; IC50 (Bel-7402; BeI7402, MTT, read-out: IC50): > 5000 µM; IC50 (Lovo; Lovo, MTT, read-out: IC50): 2480 µM; IC50 (HepG2; HepG2, MTT, read-out: IC50): 1180 µM; IC50 (NIH3T3; NIH3T3, MTT, read-out: IC50): 490 µM
3 | CCOC(=O)c1cc2c(cn1)[nH]c1ccccc12 [Compound 10, ethyl β-carboline-3-carboxylate] | 20.0 | 26.4 | 30.92 | 1.81 ± 0.20 | 20.1 | 25.5 | 40.46 | 1.56 ± 0.17 | 40.46 | – | 20.1 | 32.92 | 1.63 ± 0.16 | 23.6 | 20.3 | 41.98 | 1.41 ± 0.21 | 41.98 | – | – | IC50 (Hela; HeLa): 60 µM; IC50 (PLA-801): 280 µM; IC50 (BGC-823): 1280 µM; IC50 (Bel-7402): 2910 µM; IC50 (Lovo; LoVo): 1010 µM; IC50 (HepG2; HepG2): 1250 µM; IC50 (NIH3T3; NIH3T3): 80 µM
4 | COC(=O)c1cc2c([nH]c3ccccc32)c(-c2ccc(OC)cc2)n1 [Compound 15, methyl 1-(4-methoxyphenyl)-β-carboline-3-carboxylate] | 19.8 | 26.4 | 23.66 | 2.00 ± 0.16 | 19.9 | 26.0 | 35.50 | 1.69 ± 0.16 | 32.10 | 23.9 | 20.4 | 25.51 | 1.81 ± 0.28 | 24.0 | 20.3 | 32.10 | 1.65 ± 0.17 | 35.50 | > 3000 | > 3000 | IC50 (BGC-823; BGC823, MTT, read-out: IC50): > 3000 µM; Anti-tumor activity compared with harmine (compound 1) (Lewis lung cancer): a little worse than or equivalent to that of harmines; IC50 (Bel-7402; BeI7402, MTT, read-out: IC50): > 3000 µM; IC50 (Lovo; Lovo, MTT, read-out: IC50): > 3000 µM; IC50 (HepG2; HepG2, MTT, read-out: IC50): > 3000 µM; IC50 (NIH3T3; NIH3T3, MTT, read-out: IC50): > 3000 µM
